Assay results published in ChEMBL document CHEMBL1143554, “4-phenoxypiperidines: potent, conformationally restricted, non-imidazole histamine H3 antagonists” (J Med Chem, 2005).

Experiments:
[1] = target: T1, Histamine H3 receptor (Homo sapiens, UniProt Q9Y5N1); experiment: Mean functional activity against human H3 receptor; settings: read-out: pA2 (converted)
[2] = target: T1, Histamine H3 receptor; experiment: Mean binding affinity for human H3 receptor

T1 sequence (Q9Y5N1 whole entry): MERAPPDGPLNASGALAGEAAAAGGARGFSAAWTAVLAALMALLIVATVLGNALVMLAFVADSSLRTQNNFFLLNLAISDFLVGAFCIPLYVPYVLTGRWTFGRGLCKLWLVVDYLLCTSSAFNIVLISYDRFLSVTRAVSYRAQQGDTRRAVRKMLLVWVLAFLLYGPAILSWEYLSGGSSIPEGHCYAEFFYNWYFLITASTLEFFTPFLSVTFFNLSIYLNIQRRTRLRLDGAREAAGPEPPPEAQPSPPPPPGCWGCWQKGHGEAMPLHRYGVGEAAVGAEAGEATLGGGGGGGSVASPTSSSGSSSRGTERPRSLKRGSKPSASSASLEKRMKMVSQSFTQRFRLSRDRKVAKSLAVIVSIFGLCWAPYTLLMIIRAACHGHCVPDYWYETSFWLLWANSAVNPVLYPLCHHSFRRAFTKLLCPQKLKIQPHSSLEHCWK

| Compound | Kb [1] [nM] | Ki [2] [nM] |
| --- | --- | --- |
| CC(C)N1CCC(Oc2ccc(CN3CCN(Cc4ccccc4)CC3)cc2)CC1 | 0.661 | 2 |
| CC(C)N1CCC(Oc2ccc(CN3CCCN(C)CC3)cc2)CC1 | 0.324 | 1 |
| C[C@@H]1CCCN1CCc1cc2cc(C#N)ccc2o1 | – | 0.447 |
| CC(C)N1CCC(Oc2ccc(CN3CCN(c4ccccc4)CC3)cc2)CC1 | 1.02 | 2 |
| CC(CO)N1CCC(Oc2ccc(C#N)cc2)CC1 (stereo not given) | – | 759 |
| CC(C)N1CCC(Oc2ccc(CN3CCC(Cc4ccccc4)CC3)cc2)CC1 | 0.813 | 1.45 |
| CC(C)N1CCC(Oc2ccc(CN3CCC(O)CC3)cc2)CC1 | 0.331 | 1.41 |
| CCC(C)N1CCC(Oc2ccc(C#N)cc2)CC1 (stereo not given) | – | 15.1 |
| Cc1ccc2nc(-c3ccc(OCCCN4CCCCC4)cc3)cn2c1 | 2.04 | – |
| CC(C)N1CCC(Oc2ccc(CN(C)CCN(C)C)cc2)CC1 | 0.214 | 1.15 |
| CCCN1CCC(Oc2ccc(C#N)cc2)CC1 | – | 107 |
| N#Cc1ccc(OCCCCCN2CCCC2)cc1 | – | 19.1 |
| CC(C)N1CCC(Oc2ccc(CN3CCCC3)cc2)CC1 | 0.355 | 1.95 |
| CCN1CCC(Oc2ccc(C#N)cc2)CC1 | – | 81.3 |
| CC(C)N1CCC(Oc2ccc(CN3CCCCCC3)cc2)CC1 | 0.174 | 1.7 |
| N#Cc1ccc(OC2CCNCC2)cc1 | – | > 10000 |
| CC(C)N1CCC(Oc2ccc(CNc3ccccn3)cc2)CC1 | 0.741 | 2.24 |
| CC(C)N1CCC(Oc2ccc(CN(C)C)cc2)CC1 | 1.17 | 3.02 |
| N#Cc1ccc(OC2CCN(C3CCCCC3)CC2)cc1 | – | 32.4 |
| CCC(CC)N1CCN(C(=O)CCC(=O)c2ccc(Cl)cc2)CC1 | – | 0.871 |
| CC(C)N1CCC(Oc2ccc(CNc3ccccc3)cc2)CC1 | 2.69 | 5.5 |
| CC(C)N1CCC(Oc2ccc(CN3CCN(C)CC3)cc2)CC1 | 0.257 | 0.741 |
| CC(C)N1CCC(Oc2ccc(CN3CCC(CO)CC3)cc2)CC1 | 0.257 | 1 |
| CC(C)CN1CCC(Oc2ccc(C#N)cc2)CC1 | – | 66.1 |
| CCN(CC)Cc1ccc(OC2CCN(C(C)C)CC2)cc1 | 0.468 | 1.23 |
| CC(C)N1CCC(Oc2ccc(CNC3CC3)cc2)CC1 | 0.457 | 1.62 |
| CCCCN(C)Cc1ccc(OC2CCN(C(C)C)CC2)cc1 | 0.339 | 1.48 |
| CC(C)N1CCC(Oc2ccc(CN3CCCCC3)cc2)CC1 | 0.126 | 0.631 |
